Results on one molecule are retold here after US8513227B2, “Inhibition of inflammatory cytokine production with tanshinones” (The Feinstein Institute for Medical Research, priority 2006, dated 2013).

The subject of assay [1] is HMGB1. Nature of the assay: LPS-induced HMGB1 release in RAW 264.7 macrophage cultures (western blot). Type of assay: cell-based, murine. From the text: Cell culture. […] Rendon-Mitchell et al. 2003). Murine macrophages were pre-cultured in RPMI 1640 medium (Gibco BRL, Grand Island, N.Y.) supplemented with 10% fetal bovine serum (FBS) and 2 mmol/L glutamine. Human peripheral blood mononuclear cells (HuPBMCs) were isolated from the blood of healthy donors (Long Island Blood Bank, Melville, N.Y.) by density gradient centrifugation through Ficoll (Ficoll-Paque PLUS, Pharmacia, Piscataway, N.J.), and cultured in RPMI 1640 supplemented with 10% heat-inactivated human serum/0.2 mM L-glutamine as previously described (Rendon-Mitchell et al. 2003). LPS stimulation. Adherent macrophages or monocytes were gently washed with, and cultured in, serum-free OPTI-MEM I medium two hours before stimulation with bacterial endotoxin (lipopolysaccharide, LPS, E. coli 0111:B4, Sigma-Aldrich). […] Rendon-Mitchell et al. 2003; Wang et al. 1999). HMGB1 western blotting analysis. The levels of HMGB1 in the culture medium or serum were determined by western blotting analysis as previously described (Chen et al. 2004; Rendon-Mitchell et al. 2003; Wang et al. 1999). The relative band intensity was quantified using NIH image 1.59 software to determine HMGB1 levels with reference to standard curves generated with purified HMGB1.

Assay [2] deals with HMGB1. Nature of the assay: LPS-induced HMGB1 release in primary human peripheral blood mononuclear cells. Type of assay: cell-based. To be noted: FIG. 2B. Here is the method:
(§1) Cell culture. Murine macrophage-like RAW 264.7 cells were obtained from the American Type Culture Collection (ATCC, Rockville, Md.), and primary peritoneal macrophages were isolated from Balb/C mice (male, 7-8 weeks, 20-25 grams) at 2-3 days after intraperitoneal injection of 2 ml thioglycollate broth (4%) as previously described (Chen et al. 2004; Rendon-Mitchell et al. 2003). Murine macrophages were pre-cultured in RPMI 1640 medium (Gibco BRL, Grand Island, N.Y.) supplemented with 10% fetal bovine serum (FBS) and 2 mmol/L glutamine. […]
(§2) LPS stimulation. […] At 16 hours after LPS stimulation, levels of HMGB1 in the culture medium were determined as previously described (Chen et al. 2004; Rendon-Mitchell et al. 2003; Wang et al. 1999).
(§3) HMGB1 western blotting analysis. The levels of HMGB1 in the culture medium or serum were determined by western blotting analysis as previously described (Chen et al. 2004; Rendon-Mitchell et al. 2003; Wang et al. 1999). The relative band intensity was quantified using NIH image 1.59 software to determine HMGB1 levels with reference to standard curves generated with purified HMGB1.

The subject of assay [3] is HMGB1. Nature of the assay: LPS-induced HMGB1 release in murine peritoneal macrophages. Type of assay: cell-based. To be noted: data not shown. Here is the method:
as §1, §2, §3

The next assay concerns nitric oxide. Nature of the assay: LPS-induced nitric oxide release (Griess reaction). Conditions: 100 μM, FIG. 2A lower panel. Type of assay: cell-based, murine. Here is the method:
LPS stimulation. Adherent macrophages or monocytes were gently washed with, and cultured in, serum-free OPTI-MEM I medium two hours before stimulation with bacterial endotoxin (lipopolysaccharide, LPS, E. coli 0111:B4, Sigma-Aldrich). At 16 hours after LPS stimulation, levels of HMGB1 in the culture medium were determined as previously described (Chen et al. 2004; Rendon-Mitchell et al. 2003; Wang et al. 1999).
Nitric oxide assay. The levels of nitric oxide in the culture medium were determined indirectly by measuring NO^2− production with a colorimetric assay based on the Griess reaction (Rendon-Mitchell et al. 2003). NO2-concentrations were determined with reference to a standard curve generated with sodium nitrite at various dilutions.

The test system of another assay is TNF. Nature of the assay: LPS-mediated TNF secretion in RAW 264.7 macrophages (ELISA). To be noted: macrophages stimulated with LPS >200 ng/ml. The assay is classed as cell-based, murine. Here is the method: Cell culture. Murine macrophage-like RAW 264.7 cells were obtained from the American Type Culture Collection (ATCC, Rockville, Md.), and primary peritoneal macrophages were isolated from Balb/C mice (male, 7-8 weeks, 20-25 grams) at 2-3 days after intraperitoneal injection of 2 ml thioglycollate broth (4%) as previously described (Chen et al. 2004; Rendon-Mitchell et al. 2003). Murine macrophages were pre-cultured in RPMI 1640 medium (Gibco BRL, Grand Island, N.Y.) supplemented with 10% fetal bovine serum (FBS) and 2 mmol/L glutamine. Human peripheral blood mononuclear cells (HuPBMCs) were isolated from the blood of healthy donors (Long Island Blood Bank, Melville, N.Y.) by density gradient centrifugation through Ficoll (Ficoll-Paque PLUS, Pharmacia, Piscataway, N.J.), and cultured in RPMI 1640 supplemented with 10% heat-inactivated human serum/0.2 mM L-glutamine as previously described (Rendon-Mitchell et al. 2003). LPS stimulation. […] The levels of TNF in the culture medium or serum were determined using commercial enzyme linked immunosorbent assay (ELISA) kits (Catalog no. MTA00, R & D Systems, Minneapolis, Minn.) with reference to standard curves of purified recombinant TNF at various dilutions as previously described (Chen et al. 2004; Rendon-Mitchell et al. 2003; Wang et al. 2006).

In another assay the test system is 62 cytokines. Nature of the assay: Cytokine antibody array of LPS-stimulated macrophage culture medium. The assay is classed as cell-based, murine. Here is the method: Cytokine antibody array. Murine cytokine antibody array (Cat. No. M0308003, RayBiotech Inc., Norcross, Ga., USA), which detects 62 cytokines on one membrane, was used to determine the profile of cytokines in the culture medium following the manufacturer's instructions. Briefly, the membranes were sequentially incubated with equal volume of cell-conditioned culture medium, primary biotin-conjugated antibody, and horseradish peroxidase-conjugated streptavidin. After exposing to X-ray film, the relative signal intensity was determined using the NIH image 1.59 software with reference to the positive controls on the membrane.

As for `Cc1c(S(=O)(=O)[O-])oc2c1C(=O)C(=O)c1c-2ccc2c1CCCC2(C)C.[Na+]` [TSNIIA-SS, tanshinone IIA sodium sulfonate], in the assay on HMGB1 [1] (100 μM), the “effect on LPS-induced HMGB1 release” value is “completely abrogated”. The IC50 with HMGB1 [1] (RAW 264.7 cells, 16 h after LPS, western blot, estimated, read-out: estimated IC50 for LPS-induced HMGB1 release) was less than 5 µM. Moreover, in the assay on HMGB1 [1] (added 2 to 6 h after LPS, 25 or 50 μM, HMGB1 at 16 h), the “inhibition of HMGB1 release on delayed addition” value was “significant inhibition was retained”. The “effect on LPS-induced HMGB1 release” value in the assay with HMGB1 [2] was “effectively inhibited”. In the assay with HMGB1 [3], the “effect on LPS-induced HMGB1 release” value is reported as “effectively inhibited”. In addition, in the assay with nitric oxide, the “effect on LPS-induced release of nitric oxide” value was “did not completely block”. Also, the “inhibitory effects on TNF release at higher LPS” value with TNF was “often lost”. In the assay on 62 cytokines (100 μM, cytokine array), the “attenuation of LPS-induced release of IL-1α” value came out at 50±7%, the “attenuation of LPS-induced release of IL-12p70” value was found to be 45±5%, the “attenuation of LPS-induced release of MCP-5” value is recorded as 25±5% and the “attenuation of LPS-induced release of platelet factor 4 (PF-4)” value is 35±6%. For the same molecule, the “effect on release of most cytokines, including IL-6, IL-12p40/p70, KC, MCP-1, MIP-1α, MIP-1γ, MIP-2 and TNF” value in the assay on 62 cytokines (100 μM, RAW 264.7 cells or primary peritoneal macrophages) is given as “did not suppress”. In the assay with 62 cytokines (at concentrations that completely abrogate LPS-induced HMGB1 release), the “number of other cytokines whose release is not affected” value is reported as 58 out of 62.
